Experimental data from ChEMBL document CHEMBL1201862, “PubChem BioAssay data set” (2004).
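Exposure lasted 48 hours, with cells grown in 96-well plates and compounds tested at five concentrations. Abbreviation: GI50, concentration required for 50% inhibition of growth.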 Activity calls are given as the source filed them. Cut-off read from the data, not from the text of the source: active = GI50 up to about 1.1 µM and inactive = higher.

What was measured:
Experiment in all cases: NCI-60 cell line screen, 48 h
MDA-N = test system: MDA-N
SK-OV-3 = test system: SK-OV-3
OVCAR-8 = test system: OVCAR-8
SNB-75 = test system: SNB-75
RPMI-8226 = test system: RPMI-8226
DU-145 = test system: DU-145
HCT-116 = test system: HCT-116
SNB-19 = test system: SNB-19
OVCAR-3 = test system: OVCAR-3
SW-620 = test system: SW-620
TK-10 = test system: TK-10
HOP-92 = test system: HOP-92
A549 = test system: A549
M14 = test system: M14
NCI/ADR-RES = test system: NCI/ADR-RES
NCI-H460 = test system: NCI-H460
MOLT-4 = test system: MOLT-4
UO-31 = test system: UO-31
786-0 = test system: 786-0

SMILES | GI50 (MDA-N) | GI50 (SK-OV-3) | GI50 (OVCAR-8) | GI50 (SNB-75) | GI50 (RPMI-8226) | GI50 (DU-145) | GI50 (HCT-116) | GI50 (SNB-19) | GI50 (OVCAR-3) | GI50 (SW-620) | GI50 (TK-10) | GI50 (HOP-92) | GI50 (A549) | GI50 (M14) | GI50 (NCI/ADR-RES) | GI50 (NCI-H460) | GI50 (MOLT-4) | GI50 (UO-31) | GI50 (786-0)
COC1(c2ccccc2)N=C(S)NN=C1c1ccccc1 (configuration not stated) | 21.5 µM (inactive) | 26.7 µM (inactive) | 29.3 µM (inactive) | 38.5 µM (inactive) | 38.9 µM (inactive) | 32.8 µM (inactive) | 35.5 µM (inactive) | 54.2 µM (inactive) | 30.9 µM (inactive) | 38.6 µM (inactive) | 48.2 µM (inactive) | > 100 µM (inactive) | 45.2 µM (inactive) | 27.5 µM (inactive) | 19.1 µM (inactive) | 27.5 µM (inactive) | 35.4 µM (inactive) | > 100 µM (inactive) | 41.7 µM (inactive)
S=C(CSc1ccccc1)Nc1cccc2ccccc12 | 40.7 µM (inactive) | > 100 µM (inactive) | 67 µM (inactive) | > 100 µM (inactive) | 35.6 µM (inactive) | > 100 µM (inactive) | 35 µM (inactive) | 76.9 µM (inactive) | 20.8 µM (inactive) | 55 µM (inactive) | 36.3 µM (inactive) | 56.2 µM (inactive) | 42 µM (inactive) | 54.2 µM (inactive) | 46 µM (inactive) | 29.9 µM (inactive) | 21.6 µM (inactive) | 46.2 µM (inactive) | 41.7 µM (inactive)
CCOC(=O)c1cc2c(=Cc3ccc(N(C)C)cc3)c3ccccc3n2[n+]1C | 1.23 µM (inactive) | 3.94 µM (inactive) |  |  | 0.301 µM (active) | 1.38 µM (inactive) | 0.537 µM (active) | 2.15 µM (inactive) | 0.206 µM (active) | 0.637 µM (active) | 7.67 µM (inactive) | 2.88 µM (inactive) | 3.71 µM (inactive) | 3.15 µM (inactive) | > 100 µM (inactive) | 2.44 µM (inactive) | 1.9 µM (inactive) | 6.12 µM (inactive) | 1.93 µM (inactive)
N#Cc1c(C#N)c(-c2ccco2)n(-c2ccccc2)c1N | > 100 µM (inactive) | 94.4 µM (inactive) | 22.6 µM (inactive) | 26.5 µM (inactive) | > 100 µM (inactive) | > 100 µM (inactive) | > 100 µM (inactive) | 39.2 µM (inactive) | > 100 µM (inactive) | > 100 µM (inactive) | > 100 µM (inactive) | 49.8 µM (inactive) | 59.2 µM (inactive) | > 100 µM (inactive) | 31.8 µM (inactive) |  | > 100 µM (inactive) | > 100 µM (inactive) | 83.4 µM (inactive)
O=C(/C=C/c1ccc(O)c(O)c1)c1cc(O)cc(O)c1 | 6 µM (inactive) | 13.9 µM (inactive) | 14.3 µM (inactive) | 12.2 µM (inactive) | 71.6 µM (inactive) | 18.1 µM (inactive) | 12.8 µM (inactive) | 14.5 µM (inactive) | 13.2 µM (inactive) |  | 15.3 µM (inactive) | 13 µM (inactive) | > 100 µM (inactive) | 14 µM (inactive) | 16.1 µM (inactive) |  | 4.91 µM (inactive) | 10.6 µM (inactive) | 13.7 µM (inactive)
CC1(C)CC(=O)c2c(nc3c4c([nH]c(-c5ccc(Br)cc5)c24)CC(C)(C)C3)C1 | 40.3 µM (inactive) | > 100 µM (inactive) | 49.8 µM (inactive) | 27.9 µM (inactive) |  | 65.3 µM (inactive) | 36.3 µM (inactive) | 70.3 µM (inactive) | 27.1 µM (inactive) | 49.3 µM (inactive) | 61.1 µM (inactive) | 28.7 µM (inactive) | 29.6 µM (inactive) | 36.6 µM (inactive) | 33.7 µM (inactive) | 37.8 µM (inactive) | 13.8 µM (inactive) | 45.1 µM (inactive) | 22 µM (inactive)
NC1=CN(Cc2ccccc2)C2=N/C(=C\c3ccco3)C(=O)N12 | > 100 µM (inactive) | > 100 µM (inactive) | > 100 µM (inactive) | > 100 µM (inactive) |  | > 100 µM (inactive) | > 100 µM (inactive) | > 100 µM (inactive) | > 100 µM (inactive) | > 100 µM (inactive) | > 100 µM (inactive) | > 100 µM (inactive) | > 100 µM (inactive) | > 100 µM (inactive) | > 100 µM (inactive) | > 100 µM (inactive) | > 100 µM (inactive) | > 100 µM (inactive) | > 100 µM (inactive)
CCOC(=O)C(NCc1cccc(C(F)(F)F)c1)(NC(=O)c1ccccc1)C(F)(F)F (configuration not stated) | 34 µM (inactive) | 78.3 µM (inactive) | 32.4 µM (inactive) | 27.4 µM (inactive) | 9.1 µM (inactive) | 46.5 µM (inactive) | 28.5 µM (inactive) | 71.9 µM (inactive) | 22.8 µM (inactive) | 28.1 µM (inactive) | 30.1 µM (inactive) | 27.2 µM (inactive) | 22.9 µM (inactive) | 27.8 µM (inactive) | 18.8 µM (inactive) |  | 26.1 µM (inactive) | 18.1 µM (inactive) | 28.5 µM (inactive)
CC(C)(C)C1=C(Br)C(O)(C(C)(C)C)OP1(=O)c1ccccc1 (configuration not stated) | > 100 µM (inactive) | > 100 µM (inactive) | > 100 µM (inactive) | > 100 µM (inactive) |  | > 100 µM (inactive) |  | > 100 µM (inactive) | > 100 µM (inactive) | > 100 µM (inactive) | > 100 µM (inactive) | > 100 µM (inactive) | > 100 µM (inactive) |  | > 100 µM (inactive) | > 100 µM (inactive) | > 100 µM (inactive) |  | > 100 µM (inactive)
CCN(CCCl)c1ccc(NC(=O)c2cc(C(=O)NCCN(C)C)cc(C(=O)Nc3ccc(N(CC)CCCl)cc3)c2)cc1 | 11.1 µM (inactive) | 4.26 µM (inactive) | 3.57 µM (inactive) | 8.55 µM (inactive) | 3.46 µM (inactive) | 8.41 µM (inactive) | 3.03 µM (inactive) | 1.36 µM (inactive) |  | 1.76 µM (inactive) | 16.7 µM (inactive) | 3.74 µM (inactive) | 6.24 µM (inactive) | 9.38 µM (inactive) | > 100 µM (inactive) | 0.713 µM (active) | 0.151 µM (active) | > 100 µM (inactive) | 0.942 µM (active)
CC(C)C12CCC3(CCC4C(C)(C(=O)O)CCCC4(C)C3C1)C(CN)C2 (configuration not stated) | 28.4 µM (inactive) | > 100 µM (inactive) | 30.7 µM (inactive) | 88.5 µM (inactive) | 19.3 µM (inactive) | 38.6 µM (inactive) | 17.3 µM (inactive) | 39 µM (inactive) | 40.1 µM (inactive) | 35.4 µM (inactive) | 37.7 µM (inactive) | 55.6 µM (inactive) | 30.1 µM (inactive) | 30.4 µM (inactive) | 37.6 µM (inactive) | 21.5 µM (inactive) |  | 40.4 µM (inactive) | 20.2 µM (inactive)
COc1cc(OC)c(/C=C\c2ccnc3ccccc23)c(OC)c1 | 0.329 µM (active) | 6.44 µM (inactive) |  |  | 3.06 µM (inactive) | 5.37 µM (inactive) | 2.5 µM (inactive) | 5.5 µM (inactive) | 2.92 µM (inactive) | 3.62 µM (inactive) | 4.61 µM (inactive) | 3.51 µM (inactive) | 4.13 µM (inactive) | 3.4 µM (inactive) | 2.07 µM (inactive) | 3.2 µM (inactive) | 3.56 µM (inactive) | 0.859 µM (active) | 5.53 µM (inactive)
C=CCc1cccc2cc(C(=O)Nc3ccccc3)c(=N)oc12 | 70.6 µM (inactive) | 61.7 µM (inactive) | > 100 µM (inactive) | 52.4 µM (inactive) | > 100 µM (inactive) | > 100 µM (inactive) | 18.1 µM (inactive) | > 100 µM (inactive) | > 100 µM (inactive) | > 100 µM (inactive) |  | > 100 µM (inactive) | 15 µM (inactive) | 60.7 µM (inactive) | > 100 µM (inactive) | 63.2 µM (inactive) | > 100 µM (inactive) |  | 30.3 µM (inactive)
Cc1ccc(-c2cc(-c3ccc(Cl)cc3)nc(/N=C3\C(=O)N(CN(C)C)c4ccccc43)n2)cc1 | 19.4 µM (inactive) | > 100 µM (inactive) | 58.9 µM (inactive) | 57.8 µM (inactive) |  | 31.7 µM (inactive) | 64 µM (inactive) | > 100 µM (inactive) | > 100 µM (inactive) | 12.9 µM (inactive) | 85.3 µM (inactive) | 98.9 µM (inactive) | 89.1 µM (inactive) | > 100 µM (inactive) | 43.5 µM (inactive) | 39.9 µM (inactive) | 11.5 µM (inactive) | 90.8 µM (inactive) | 54.6 µM (inactive)
COC(=O)[C@@H]1COC(=O)N1 | > 100 µM (inactive) | > 100 µM (inactive) | > 100 µM (inactive) | > 100 µM (inactive) |  | > 100 µM (inactive) | > 100 µM (inactive) | > 100 µM (inactive) | > 100 µM (inactive) | > 100 µM (inactive) | > 100 µM (inactive) | > 100 µM (inactive) | > 100 µM (inactive) | > 100 µM (inactive) | > 100 µM (inactive) | > 100 µM (inactive) | > 100 µM (inactive) | > 100 µM (inactive) | > 100 µM (inactive)
CN(C)Cc1cc(C(=O)/C=C/c2ccc([N+](=O)[O-])cc2)cc(CN(C)C)c1O | 11.7 µM (inactive) |  | 25 µM (inactive) | 2.97 µM (inactive) | 2.43 µM (inactive) | 11 µM (inactive) | 2.86 µM (inactive) | 83.4 µM (inactive) | 2.27 µM (inactive) | 10.3 µM (inactive) | 16 µM (inactive) | 8.83 µM (inactive) | 22.7 µM (inactive) | 9.23 µM (inactive) | 26.7 µM (inactive) |  | 18.9 µM (inactive) | 16.1 µM (inactive) | 2.31 µM (inactive)
